Results on nine compounds are retold here after patent US20240058422A1, “GLUCAGON-LIKE PEPTIDE-1 RECEPTOR ANTAGONISTS” (INDIANA UNIVERSITY RESEARCH AND TECHNOLOGY CORPORATION, priority 2022, published 2024).

The target in one data set is GLP-1R (Homo sapiens, UniProt P43220). Nature of the data set: GLP-1 receptor-mediated cAMP induction, luciferase reporter gene antagonism assay. The data set is classed as cell-based. Set-up: host or cells: HEK 293. The note with it: antagonism of 0.05 nM GLP-1, HEK 293 cells. The procedure, abridged:
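HEK 293 cells cotransfected with human GLP-1 receptor and CRE-luciferase were serum-deprived 16 h, then given serial peptide dilutions followed by 0.05 nM GLP-1 and incubated 5 h at 37° C.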
(In a reporter assay the amount or activity of a reporter protein is the signal.)

Where [1] appears, read: Table 4, Aib variants of 9-40am Jant4 K40[C16], read-out: Bioactivity IC50.
Setting [2] is: pH 7.7, Solubility [mg/mL] 80 mM AmBicarb pH7.7.
Setting [3] is: Table 3, amino acid substitution variants of Jant4-K40, read-out: Bioactivity IC50.
The mark [4] stands for this setting: pH 7.7, Solubility 80 mM AmeBicarb pH7.7.
The mark [5] stands for this setting: pH 7.7, Solubility [mg/mL] PBS pH7.7.

Converted amounts (≈) assume the structure as drawn. Where two headings read alike, the source gives them in different places. Starred links: 1 amine or outer side, 2 acyl side, 3 side chain; linkers in the order of their positions; H or OH if unused. Non-standard residues stand in square brackets, D forms with d. Residues, ends and D or L forms follow the SMILES beside them. Groups on a side chain read outwards from the residue. *: point of attachment. γGlu = O=C(O)[C@H](CCC(=O)[*:2])N[*:1]; Palmitoyl = CCCCCCCCCCCCCCCC(=O)*; AEEA = NCCOCCOCC(=O)O; Aib = CC(C)(N)C(=O)O

By IC50 is commonly meant the concentration that inhibits the measured activity by half. A word on the solubility: it is how much of the substance goes into solution per volume.

Chain of GLP-1R (P43220 24-463): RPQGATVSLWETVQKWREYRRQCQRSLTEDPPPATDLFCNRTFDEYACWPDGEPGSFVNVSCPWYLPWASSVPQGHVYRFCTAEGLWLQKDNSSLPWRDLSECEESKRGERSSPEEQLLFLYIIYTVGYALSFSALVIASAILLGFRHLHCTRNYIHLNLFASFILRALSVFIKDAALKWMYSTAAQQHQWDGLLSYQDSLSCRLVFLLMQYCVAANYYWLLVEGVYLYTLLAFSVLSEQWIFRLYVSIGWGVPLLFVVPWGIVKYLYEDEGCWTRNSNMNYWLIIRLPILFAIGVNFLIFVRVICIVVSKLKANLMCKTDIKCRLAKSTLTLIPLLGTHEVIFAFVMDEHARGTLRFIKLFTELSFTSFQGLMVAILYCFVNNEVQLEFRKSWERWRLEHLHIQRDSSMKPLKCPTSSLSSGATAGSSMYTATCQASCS

As to `CCCCCCCCCCCCCCCC(=O)NCCCC[C@H](NC(=O)[C@H](CO)NC(=O)[C@@H]1CCCN1C(=O)[C@@H]1CCCN1C(=O)[C@@H]1CCCN1C(=O)[C@H](C)NC(=O)CNC(=O)[C@H](CO)NC(=O)[C@H](CO)NC(=O)[C@@H]1CCCN1C(=O)CNC(=O)CNC(=O)[C@H](CCCCN)NC(=O)[C@@H](NC(=O)C(C)(C)NC(=O)[C@H](Cc1c[nH]c2ccccc12)NC(=O)[C@H](C)NC(=O)[C@@H](NC(=O)[C@H](Cc1ccccc1)NC(=O)[C@H](CCC(=O)O)NC(=O)[C@H](CCCNC(=N)N)NC(=O)[C@@H](NC(=O)[C@H](C)NC(=O)[C@H](CCC(N)=O)NC(=O)[C@H](CCC(=O)O)NC(=O)[C@H](CCC(=O)O)NC(=O)[C@H](CC(C)C)NC(=O)[C@H](Cc1ccc(O)cc1)NC(=O)[C@H](CO)NC(=O)[C@H](CO)NC(=O)[C@@H](NC(=O)[C@@H](N)CC(=O)O)C(C)C)C(C)C)[C@@H](C)CC)C(C)C)C(N)=O` [compound 44] (H-DVSSYLEEQAVREFIAW[Aib]VKGGPSSGAPPPSK(Palmitoyl)-NH2), the IC50 on GLP-1R (setting [1]) amounted to 8 nM. For the same compound, the solubility amounted to 19 mg/mL (≈ 5260 µM) in the data set “physchem” (setting [2]) and 0.1 mg/mL (≈ 27.7 µM) in “Solubility in buffer” (PBS, pH 7.7, Solubility [mg/mL] PBS pH7.7, Table 4, PBS pH7.7).

As for `CCCCCCCCCCCCCCCC(=O)NCCCC[C@H](NC(=O)[C@H](CO)NC(=O)[C@@H]1CCCN1C(=O)[C@@H]1CCCN1C(=O)[C@@H]1CCCN1C(=O)[C@H](C)NC(=O)CNC(=O)[C@H](CO)NC(=O)[C@H](CO)NC(=O)[C@@H]1CCCN1C(=O)CNC(=O)CNC(=O)[C@H](CCCCN)NC(=O)[C@@H](NC(=O)[C@H](CC(C)C)NC(=O)[C@H](Cc1c[nH]c2ccccc12)NC(=O)[C@H](C)NC(=O)[C@@H](NC(=O)[C@H](Cc1ccccc1)NC(=O)[C@H](CCC(=O)O)NC(=O)[C@H](CCCNC(=N)N)NC(=O)[C@@H](NC(=O)[C@H](C)NC(=O)[C@H](CCC(N)=O)NC(=O)[C@H](CCC(=O)O)NC(=O)[C@H](CCC(=O)O)NC(=O)[C@H](CC(C)C)NC(=O)[C@H](Cc1ccc(O)cc1)NC(=O)[C@H](CO)NC(=O)[C@H](CO)NC(=O)[C@@H](NC(=O)[C@@H](N)CC(=O)O)C(C)C)C(C)C)[C@@H](C)CC)C(C)C)C(N)=O` [compound 47] (H-DVSSYLEEQAVREFIAWLVKGGPSSGAPPPSK(Palmitoyl)-NH2; N-terminus assumed), the solubility is 6.1 mg/mL (≈ 1680 µM) in the data set “physchem” (setting [2]) and 6.1 mg/mL (≈ 1680 µM) in the data set “Solubility in buffer” (80 mM ammonium bicarbonate buffer, pH 7.7, Solubility 80 mM AmeBicarb pH7.7, Table 3, 80 mM AmeBicarb pH7.7).

For `CCCCCCCCCCCCCCCC(=O)NCCCC[C@H](NC(=O)[C@H](CO)NC(=O)[C@@H]1CCCN1C(=O)[C@@H]1CCCN1C(=O)[C@@H]1CCCN1C(=O)[C@H](C)NC(=O)CNC(=O)[C@H](CO)NC(=O)[C@H](CO)NC(=O)[C@@H]1CCCN1C(=O)CNC(=O)CNC(=O)[C@H](CCCNC(=N)N)NC(=O)[C@@H](NC(=O)[C@H](CC(C)C)NC(=O)[C@H](Cc1c[nH]c2ccccc12)NC(=O)[C@H](CCC(=O)O)NC(=O)[C@@H](NC(=O)[C@H](Cc1ccccc1)NC(=O)[C@H](CCC(=O)O)NC(=O)[C@H](CCCNC(=N)N)NC(=O)[C@@H](NC(=O)[C@H](C)NC(=O)[C@H](CCC(N)=O)NC(=O)[C@H](CCC(=O)O)NC(=O)[C@H](CCC(=O)O)NC(=O)[C@H](CC(C)C)NC(=O)[C@H](Cc1ccc(O)cc1)NC(=O)[C@H](CCCNC(=N)N)NC(=O)[C@H](CO)NC(=O)[C@@H](NC(=O)[C@@H](N)CC(=O)O)C(C)C)C(C)C)[C@@H](C)CC)C(C)C)C(N)=O` [compound 74] (H-DVSRYLEEQAVREFIEWLVRGGPSSGAPPPSK(Palmitoyl)-NH2; N-terminus assumed), the IC50 at GLP-1R (setting [3]) is 15 nM. Also, in “physchem” (setting [4]), the solubility was over 20 mg/mL.

With `CCCCCCCCCCCCCCCC(=O)N[C@@H](CCC(=O)NCCOCCOCC(=O)NCCCC[C@H](NC(=O)[C@H](CO)NC(=O)[C@@H]1CCCN1C(=O)[C@@H]1CCCN1C(=O)[C@@H]1CCCN1C(=O)[C@H](C)NC(=O)CNC(=O)[C@H](CO)NC(=O)[C@H](CO)NC(=O)[C@@H]1CCCN1C(=O)CNC(=O)CNC(=O)[C@H](CCCNC(=N)N)NC(=O)[C@@H](NC(=O)[C@H](CC(C)C)NC(=O)[C@H](Cc1c[nH]c2ccccc12)NC(=O)[C@H](C)NC(=O)[C@@H](NC(=O)[C@H](Cc1ccccc1)NC(=O)[C@H](CCC(=O)O)NC(=O)[C@H](CCCNC(=N)N)NC(=O)[C@@H](NC(=O)[C@H](C)NC(=O)[C@H](CCC(N)=O)NC(=O)[C@H](CCC(=O)O)NC(=O)[C@H](CCC(=O)O)NC(=O)[C@H](CC(C)C)NC(=O)[C@H](Cc1ccc(O)cc1)NC(=O)[C@H](CO)NC(=O)[C@H](CO)NC(=O)[C@@H](NC(=O)[C@@H](N)CC(=O)O)C(C)C)C(C)C)[C@@H](C)CC)C(C)C)C(=O)O)C(=O)O` [compound 77] (H-DVSSYLEEQAVREFIAWLVRGGPSSGAPPPSK([AEEA-γGlu-Palmitoyl])-OH), the IC50 on GLP-1R (setting [3]) was determined as 13 nM. The compound also came in with a solubility in the data set “physchem” (setting [4]) of over 20 mg/mL.

Turning to `CCCCCCCCCCCCCCCC(=O)N[C@@H](CCC(=O)NCCOCCOCC(=O)NCCCC[C@H](NC(=O)[C@H](CO)NC(=O)[C@@H]1CCCN1C(=O)[C@@H]1CCCN1C(=O)[C@@H]1CCCN1C(=O)[C@H](C)NC(=O)CNC(=O)[C@H](CO)NC(=O)[C@H](CO)NC(=O)[C@@H]1CCCN1C(=O)CNC(=O)CNC(=O)[C@H](CCCNC(=N)N)NC(=O)[C@@H](NC(=O)[C@H](CC(C)C)NC(=O)[C@H](Cc1c[nH]c2ccccc12)NC(=O)[C@H](CCC(=O)O)NC(=O)[C@@H](NC(=O)[C@H](Cc1ccccc1)NC(=O)[C@H](CCC(=O)O)NC(=O)[C@H](CCCNC(=N)N)NC(=O)[C@@H](NC(=O)[C@H](C)NC(=O)[C@H](CCC(N)=O)NC(=O)[C@H](CCC(=O)O)NC(=O)[C@H](CCC(=O)O)NC(=O)[C@H](CC(C)C)NC(=O)[C@H](Cc1ccc(O)cc1)NC(=O)[C@H](CO)NC(=O)[C@H](CO)NC(=O)[C@@H](NC(=O)[C@@H](N)CC(=O)O)C(C)C)C(C)C)[C@@H](C)CC)C(C)C)C(=O)O)C(=O)O` [compound 78] (H-DVSSYLEEQAVREFIEWLVRGGPSSGAPPPSK([AEEA-γGlu-Palmitoyl])-OH; N-terminus assumed), at GLP-1R (setting [3]), the IC50 was found to be 19 nM. Further, the solubility in “physchem” (setting [4]) is over 20 mg/mL.

As to `CCCCCCCCCCCCCCCC(=O)N[C@@H](CCC(=O)NCCOCCOCC(=O)NCCCC[C@H](NC(=O)[C@H](CO)NC(=O)[C@@H]1CCCN1C(=O)[C@@H]1CCCN1C(=O)[C@@H]1CCCN1C(=O)[C@H](C)NC(=O)CNC(=O)[C@H](CO)NC(=O)[C@H](CO)NC(=O)[C@@H]1CCCN1C(=O)CNC(=O)CNC(=O)C(C)(C)NC(=O)[C@H](CCCNC(=N)N)NC(=O)[C@H](CC(C)C)NC(=O)[C@H](Cc1c[nH]c2ccccc12)NC(=O)[C@H](CCC(=O)O)NC(=O)[C@@H](NC(=O)[C@H](Cc1ccccc1)NC(=O)[C@H](CCC(=O)O)NC(=O)[C@H](CCCNC(=N)N)NC(=O)[C@@H](NC(=O)[C@H](C)NC(=O)[C@H](CCC(N)=O)NC(=O)[C@H](CCC(=O)O)NC(=O)[C@H](CCC(=O)O)NC(=O)[C@H](CC(C)C)NC(=O)[C@H](Cc1ccc(O)cc1)NC(=O)[C@H](CO)NC(=O)[C@H](CO)NC(=O)[C@@H](NC(=O)[C@@H](N)CC(=O)O)C(C)C)C(C)C)[C@@H](C)CC)C(=O)O)C(=O)O` [compound 80] (H-DVSSYLEEQAVREFIEWLR[Aib]GGPSSGAPPPSK([AEEA-γGlu-Palmitoyl])-OH; N-terminus assumed), the IC50 at GLP-1R (setting [3]) was found to be 106 nM. The compound also returned a solubility in the data set “physchem” (setting [4]) of over 20 mg/mL.

For `CCCCCCCCCCCCCCCC(=O)NCCCC[C@H](NC(=O)[C@H](CO)NC(=O)[C@@H]1CCCN1C(=O)[C@@H]1CCCN1C(=O)[C@@H]1CCCN1C(=O)[C@H](C)NC(=O)CNC(=O)[C@H](CO)NC(=O)[C@H](CO)NC(=O)[C@@H]1CCCN1C(=O)CNC(=O)CNC(=O)[C@H](CCCCN)NC(=O)C(C)(C)NC(=O)[C@H](CC(C)C)NC(=O)[C@H](Cc1c[nH]c2ccccc12)NC(=O)[C@H](C)NC(=O)[C@@H](NC(=O)[C@H](Cc1ccccc1)NC(=O)[C@H](CCC(=O)O)NC(=O)[C@H](CCCNC(=N)N)NC(=O)[C@@H](NC(=O)[C@H](C)NC(=O)[C@H](CCC(N)=O)NC(=O)[C@H](CCC(=O)O)NC(=O)[C@H](CCC(=O)O)NC(=O)[C@H](CC(C)C)NC(=O)[C@H](Cc1ccc(O)cc1)NC(=O)[C@H](CO)NC(=O)[C@H](CO)NC(=O)[C@@H](NC(=O)[C@@H](N)CC(=O)O)C(C)C)C(C)C)[C@@H](C)CC)C(N)=O` [compound 81] (H-DVSSYLEEQAVREFIAWL[Aib]KGGPSSGAPPPSK(Palmitoyl)-NH2), on GLP-1R (setting [1]), the IC50 was 23 nM. Moreover, the solubility was found to be 19 mg/mL (≈ 5240 µM) in the data set “physchem” (setting [2]) and 1.6 mg/mL (≈ 441 µM) in “physchem” (setting [5]).

With `CCCCCCCCCCCCCCCC(=O)NCCCC[C@H](NC(=O)[C@H](CO)NC(=O)[C@@H]1CCCN1C(=O)[C@@H]1CCCN1C(=O)[C@@H]1CCCN1C(=O)[C@H](C)NC(=O)CNC(=O)[C@H](CO)NC(=O)[C@H](CO)NC(=O)[C@@H]1CCCN1C(=O)CNC(=O)CNC(=O)C(C)(C)NC(=O)[C@@H](NC(=O)[C@H](CCCCN)NC(=O)[C@H](Cc1c[nH]c2ccccc12)NC(=O)[C@H](C)NC(=O)[C@@H](NC(=O)[C@H](Cc1ccccc1)NC(=O)[C@H](CCC(=O)O)NC(=O)[C@H](CCCNC(=N)N)NC(=O)[C@@H](NC(=O)[C@H](C)NC(=O)[C@H](CCC(N)=O)NC(=O)[C@H](CCC(=O)O)NC(=O)[C@H](CCC(=O)O)NC(=O)[C@H](CC(C)C)NC(=O)[C@H](Cc1ccc(O)cc1)NC(=O)[C@H](CO)NC(=O)[C@H](CO)NC(=O)[C@@H](NC(=O)[C@@H](N)CC(=O)O)C(C)C)C(C)C)[C@@H](C)CC)C(C)C)C(N)=O` [compound 82] (H-DVSSYLEEQAVREFIAWKV[Aib]GGPSSGAPPPSK(Palmitoyl)-NH2), the IC50 at GLP-1R (setting [1]) was found to be 6 nM. For the same compound, the solubility in “physchem” (setting [2]) turned out to be 14.2 mg/mL (≈ 3930 µM); in “physchem” (setting [5]), 0.1 mg/mL (≈ 27.7 µM).

“H-DVSSYLEEQAVREFIAWLVKGGPSSGAPPPSK-NH2 [compound 95]”: the half-inhibitory concentration (IC50) on GLP-1R (Table 2, C16 linker variants of 9-40amide Jant4 K40[X], read-out: Biactivity IC50) stood at 281 nM. This compound also registered a solubility in “physchem” (setting [2]) of 12.7 mg/mL.
